According to patent US8669251B2, “8-fluorophthalazin-1(2H)-one compounds” (Genentech, Inc., priority 2011, dated 2014):

Test system: production of CD69 by B lymphocytes in human whole blood
Assay: CD69 Whole Blood Assay (CD69 Hu Blood FACS)
Type: cell-based
Details: human whole blood activated with goat F(ab')2 anti-human IgM, 20 hours; CD69 on CD20 positive cells by FACS; Table 1
Description: A CD69 Whole Blood Assay can be conducted on Formula I compounds to determine the ability of compounds to inhibit the production of CD69 by B lymphocytes in human whole blood activated by crosslinking surface IgM with goat F(ab′)2 anti-human IgM (Example 907). CD69 is a type II C-type lectin involved in lymphocyte migration and cytokine secretion. CD69 expression represents one of the earliest available indicators of leukocyte activation and its rapid induction occurs through transcriptional activation (Vazquez et al (2009) Jour. of Immunology Published Oct. 19, 2009, doi:10.4049/jimmunol.0900839). Concentration-dependent inhibition of antigen receptor stimulation by selective Btk inhibitors induces cell surface expression of the lymphocyte activation marker CD69 (Honigberg et al (2010) Proc. Natl. Acad. Sci. 107(29):13075-13080). Thus, CD69 inhibition by selective Btk inhibitors may be correlated with therapeutic efficacy of certain B-cell disorders.
Human blood is obtained from healthy volunteers, with the following restrictions: 1 week drug-free, non-smokers. Blood (approximately 20 mls to test 8 compounds) is collected by venipuncture into Vacutainer® (Becton, Dickinson and Co.) tubes with sodium heparin.
Solutions of Formula I and II compounds at 10 mM in DMSO are diluted 1:10 in 100% DMSO, then are diluted by three-fold serial dilutions in 100% DMSO for a ten point dose-response curve. The compounds are further diluted 1:10 in PBS and then an aliquot of 5.5 μl of each compound is added in duplicate to a 2 ml 96-well plate; 5.5 μl of 10% DMSO in PBS is added as control and no-stimulus wells. Human whole blood —HWB (100 μl) is added to each well. After mixing the plates are incubated at 37° C., 5% CO2, 100% humidity for 30 minutes. Goat F(ab′)2 anti-human IgM (10 μl of a 500 μg/ml solution, 50 μg/ml final) is added to each well (except the no-stimulus wells) with mixing and the plates are incubated for an additional 20 hours. At the end of the 20 hour incubation, samples are incubated with fluorescent labeled antibodies for 30 minutes, at 37° C., 5% CO2, 100% humidity. Include induced control, unstained and single stains for compensation adjustments and initial voltage settings. Samples are then lysed with PharM Lyse™ (BD Biosciences Pharmingen) according to the manufacturer's instructions. Samples are then transferred to a 96 well plate suitable to be run on the BD Biosciences HTS 96 well system on the LSRII machine. Data acquired and Mean Fluorescence Intensity values were obtained using BD Biosciences DIVA Software. Results are initially analyzed by FACS analysis software (Flow Jo). […] The inhibitory concentration (IC50, IC70, IC90) values are calculated by Prism version 5, using a nonlinear regression curve fit.

Row | Structure (SMILES) | CD69 Hu Blood FACS (IC70) [µM]
1 | C[C@@H]1CN(C2COC2)CCN1c1ccc(Nc2cc(-c3cc(F)cc(-n4ncc5cc(C(C)(C)C)cc(F)c5c4=O)c3CO)cn(C)c2=O)nc1 [Compound 107, (R)-6-tert-butyl-8-fluoro-2-(5-fluoro-2-(hydroxymethyl)-3-(1-methyl-5-(5-(2-methyl-4-(oxetan-3-yl)piperazin-1-yl)pyridin-2-ylamino)-6-oxo-1,6-dihydropyridin-3-yl)phenyl)phthalazin-1(2H)-one] | 0.0263
2 | C[C@H]1CN(C2COC2)CCN1c1ccc(Nc2cc(-c3ccnc(-n4ncc5cc(C(C)(C)C)cc(F)c5c4=O)c3CO)cn(C)c2=O)nc1 [Compound 105, (S)-6-tert-butyl-8-fluoro-2-(3-(hydroxymethyl)-4-(1-methyl-5-(5-(2-methyl-4-(oxetan-3-yl)piperazin-1-yl)pyridin-2-ylamino)-6-oxo-1,6-dihydropyridin-3-yl)pyridin-2-yl)phthalazin-1(2H)-one] | 0.006
3 | CC[C@H]1CN(C2COC2)CCN1c1ccc(Nc2cc(-c3ccnc(-n4ncc5cc(C(C)(C)C)cc(F)c5c4=O)c3CO)cn(C)c2=O)nc1 [Compound 112, (S)-6-tert-butyl-2-(4-(5-(5-(2-ethyl-4-(oxetan-3-yl)piperazin-1-yl)pyridin-2-ylamino)-1-methyl-6-oxo-1,6-dihydropyridin-3-yl)-3-(hydroxymethyl)pyridin-2-yl)-8-fluorophthalazin-1(2H)-one] | 0.0329
4 | C[C@H]1CN(C2COC2)CCN1c1ccc(Nc2cc(-c3cncc(-n4ncc5cc(C(C)(C)C)cc(F)c5c4=O)c3CO)cn(C)c2=O)nc1 [Compound 109, (S)-6-tert-butyl-8-fluoro-2-(4-(hydroxymethyl)-5-(1-methyl-5-(5-(2-methyl-4-(oxetan-3-yl)piperazin-1-yl)pyridin-2-ylamino)-6-oxo-1,6-dihydropyridin-3-yl)pyridin-3-yl)phthalazin-1(2H)-one] | 0.012
5 | CC[C@H]1CN(C2COC2)CCN1c1ccc(Nc2cc(-c3cc(F)cc(-n4ncc5cc(C(C)(C)C)cc(F)c5c4=O)c3CO)cn(C)c2=O)nc1 [Compound 111, (S)-6-tert-butyl-2-(3-(5-(5-(2-ethyl-4-(oxetan-3-yl)piperazin-1-yl)pyridin-2-ylamino)-1-methyl-6-oxo-1,6-dihydropyridin-3-yl)-5-fluoro-2-(hydroxymethyl)phenyl)-8-fluorophthalazin-1(2H)-one] | 0.0374

Same assay, conditions: human whole blood activated with goat F(ab')2 anti-human IgM, 20 hours; CD69 on CD20 positive cells by FACS; Table 2

Row | Structure (SMILES) | CD69 Hu Blood FACS (IC70) [µM]
6 | CCc1cc(Nc2cc(-c3ccnc(-n4ncc5cc(C(C)(C)C)cc(F)c5c4=O)c3CO)cn(C)c2=O)nn1C [Compound 122, 6-tert-butyl-2-[4-[5-[(5-ethyl-1-methyl-pyrazol-3-yl)amino]-1-methyl-6-oxo-3-pyridyl]-3-(hydroxymethyl)-2-pyridyl]-8-fluoro-phthalazin-1-one] | 0.0375
7 | Cc1cc(Nc2cc(-c3ccnc(-n4ncc5cc(C(C)(C)C)cc(F)c5c4=O)c3CO)cn(C)c2=O)nn1C [Compound 119, 6-tert-butyl-2-[4-[5-[(1,5-dimethylpyrazol-3-yl)amino]-1-methyl-6-oxo-3-pyridyl]-3-(hydroxymethyl)-2-pyridyl]-8-fluoro-phthalazin-1-one] | 0.0247
8 | CN1CCn2nc(Nc3cc(-c4ccnc(-n5ncc6cc(C(C)(C)C)cc(F)c6c5=O)c4CO)cn(C)c3=O)cc2C1 [Compound 128, 6-tert-butyl-8-fluoro-2-[3-(hydroxymethyl)-4-[1-methyl-5-[(5-methyl-6,7-dihydro-4H-pyrazolo[1,5-a]pyrazin-2-yl)amino]-6-oxo-3-pyridyl]-2-pyridyl]phthalazin-1-one] | 0.0272
9 | C[C@H]1COCCN1C(=O)c1ccc(Nc2cc(-c3ccnc(-n4ncc5cc(C(C)(C)C)cc(F)c5c4=O)c3CO)cn(C)c2=O)nc1 [Compound 136, 6-tert-butyl-8-fluoro-2-[3-(hydroxymethyl)-4-[1-methyl-5-[[5-[(3S)-3-methylmorpholine-4-carbonyl]-2-pyridyl]amino]-6-oxo-3-pyridyl]-2-pyridyl]phthalazin-1-one] | 0.0145
10 | Cn1ccc(Nc2cc(-c3ccnc(-n4ncc5cc(C(C)(C)C)cc(F)c5c4=O)c3CO)cn(C)c2=O)n1 [Compound 140, 6-tert-butyl-8-fluoro-2-[3-(hydroxymethyl)-4-[1-methyl-5-[(1-methylpyrazol-3-yl)amino]-6-oxo-3-pyridyl]-2-pyridyl]phthalazin-1-one] | 0.068
11 | CC(C)C(=O)N1CCn2nc(Nc3cc(-c4ccnc(-n5ncc6cc(C(C)(C)C)cc(F)c6c5=O)c4CO)cn(C)c3=O)cc2C1 [Compound 148, 6-tert-butyl-8-fluoro-2-[3-(hydroxymethyl)-4-[1-methyl-5-[[5-(2-methylpropanoyl)-6,7-dihydro-4H-pyrazolo[1,5-a]pyrazin-2-yl]amino]-6-oxo-3-pyridyl]-2-pyridyl]phthalazin-1-one] | 0.0139
12 | Cn1cc(-c2ccnc(-n3ncc4cc(C(C)(C)C)cc(F)c4c3=O)c2CO)cc(Nc2cc3n(n2)CC(C)(C)OC3)c1=O [Compound 139, 6-tert-butyl-2-[4-[5-[(6,6-dimethyl-4,7-dihydropyrazolo[5,1-c][1,4]oxazin-2-yl)amino]-1-methyl-6-oxo-3-pyridyl]-3-(hydroxymethyl)-2-pyridyl]-8-fluoro-phthalazin-1-one] | 0.0616
13 | Cc1cnc(Nc2cc(-c3ccnc(-n4ncc5cc(C(C)(C)C)cc(F)c5c4=O)c3CO)cn(C)c2=O)s1 [Compound 120, 6-tert-butyl-8-fluoro-2-[3-(hydroxymethyl)-4-[1-methyl-5-[(5-methylthiazol-2-yl)amino]-6-oxo-3-pyridyl]-2-pyridyl]phthalazin-1-one] | 0.139
14 | Cn1nc(Nc2cc(-c3ccnc(-n4ncc5cc(C(C)(C)C)cc(F)c5c4=O)c3CO)cn(C)c2=O)cc1C1CC1 [Compound 126, 6-tert-butyl-2-[4-[5-[(5-cyclopropyl-1-methyl-pyrazol-3-yl)amino]-1-methyl-6-oxo-3-pyridyl]-3-(hydroxymethyl)-2-pyridyl]-8-fluoro-phthalazin-1-one] | 0.0445
15 | Cn1cc(-c2ccnc(-n3ncc4cc(C(C)(C)C)cc(F)c4c3=O)c2CO)cc(Nc2cnccn2)c1=O [Compound 160, 6-tert-butyl-8-fluoro-2-[3-(hydroxymethyl)-4-[1-methyl-6-oxo-5-(pyrazin-2-ylamino)-3-pyridyl]-2-pyridyl]phthalazin-1-one] | 0.116
16 | CN1CCc2nc(Nc3cc(-c4ccnc(-n5ncc6cc(C(C)(C)C)cc(F)c6c5=O)c4CO)cn(C)c3=O)sc2C1 [Compound 115, 6-tert-butyl-8-fluoro-2-[3-(hydroxymethyl)-4-[1-methyl-5-[(5-methyl-6,7-dihydro-4H-thiazolo[5,4-c]pyridin-2-yl)amino]-6-oxo-3-pyridyl]-2-pyridyl]phthalazin-1-one] | 0.0732
17 | Cn1cc(-c2ccnc(-n3ncc4cc(C(C)(C)C)cc(F)c4c3=O)c2CO)cc(Nc2cc3n(n2)CCOC3)c1=O [Compound 131, 6-tert-butyl-2-[4-[5-(6,7-dihydro-4H-pyrazolo[5,1-c][1,4]oxazin-2-ylamino)-1-methyl-6-oxo-3-pyridyl]-3-(hydroxymethyl)-2-pyridyl]-8-fluoro-phthalazin-1-one] | 0.0171
18 | Cn1nc(-c2ccnc(-n3ncc4cc(C(C)(C)C)cc(F)c4c3=O)c2CO)cc(Nc2cc3n(n2)CCN(C2COC2)C3)c1=O [Compound 155, 6-tert-butyl-8-fluoro-2-[3-(hydroxymethyl)-4-[1-methyl-5-[[5-(oxetan-3-yl)-6,7-dihydro-4H-pyrazolo[1,5-a]pyrazin-2-yl]amino]-6-oxo-pyridazin-3-yl]-2-pyridyl]phthalazin-1-one] | 0.0266
19 | Cn1nc(Nc2cc(-c3ccnc(-n4ncc5cc(C(C)(C)C)cc(F)c5c4=O)c3CO)cn(C)c2=O)cc1C(=O)N1CCCC1 [Compound 144, 6-tert-butyl-8-fluoro-2-[3-(hydroxymethyl)-4-[1-methyl-5-[[1-methyl-5-(pyrrolidine-1-carbonyl)pyrazol-3-yl]amino]-6-oxo-3-pyridyl]-2-pyridyl]phthalazin-1-one] | 0.0203
